The text below walks through data of patent US9011853B2, “B7-H4 fusion proteins and methods of use thereof” (Amplimmune, Inc., priority 2009, dated 2015).

Type in all cases: in vivo, mouse
One assay relates to DBA/1J mice. The assay can be described thus: CIA therapeutic model, arthritis score. Particulars: 300 μg IP 3 times a week for 4 weeks from CII rechallenge (day 21); days 38 and beyond; vs vehicle (FIG. 5). As to the method: FIG. 4 outlines a brief experimental design of the CIA therapeutic study. DBA/1J mice were first immunized with chicken CII emulsified in CFA. Twenty one days later, the mice were rechallenged with CII emulsified in IFA and randomized into 2 groups. Group 1 (n=10) were IP injected with 300 μg of B7-H4-Ig, 3 times a week for 4 weeks. Group 2 (n=10) were injected with vehicle. Mouse paws/joints were monitored and scored 3 times a week.

A further assay has as its system SJL mice. The assay can be described thus: Delayed-type hypersensitivity (DTH) responses, 24 hr ear swelling assay in R-EAE mice. Particulars: given from Day 0, 5 injections, both 3 mg/kg (60 μg) and 15 mg/kg (300 μg); ear challenge Day 10 (FIG. 39). On the procedure:
DTH responses were quantitated using a 24 hr ear swelling assay as previously described. Pre-challenge ear thickness was determined using a Mitutoyo model 7326 engineer's micrometer (Schlesinger's Tools, Brooklyn, N.Y.). Immediately thereafter, DTH responses were elicited by injecting 10 μg of peptide in 10 μL of PBS into the dorsal surface of the ear using a 100 μL Hamilton syringe fitted with a 30 gauge needle. The increase in ear thickness over pre-challenge measurements was determined 24 hr after ear challenge. Results are expressed in units of 10^−4 inches±SEM. […] Significance of ear swelling in murine B7-H4-Ig treated mice over Control IgG injected mice was assessed by the Student's t test.
To determine the effect of B7-H4-Ig on blocking CD4^+ T cell mediated activity specific for the primary myelin-derived epitope PLP139-151 and epitope spreading, peptide-specific responses in vivo via DTH on all 4 treatment groups were analyzed. Mice were ear challenged with 10 μg of the indicated peptides on Day 50, and swelling was measured 24 h later.
To clarify the effect of B7-H4-Ig on the EAE acute phase, a 2nd in vivo experiment was conducted in the PLP139-151 induced MAE model. […] Mice were ear challenged with 10 μg of PLP139-151 on Day 10, and swelling was measured 24 h later. […]

Assay [1] deals with TNFα, IL6, and chemokine (MCP-1). The assay can be described thus: Plasma proinflammatory molecules in CIA mice, BD Cytometric Bead Array. From the text:
Plasma was collected on day 33 from mice treated as described in Example 3 and analyzed for proinflammatory molecules, e.g. TNFα, IL6, and chemokine (MCP-1) using the BD™ Cytometric Bead Array (CBA) Flex Sets.

In assay [2] the test system is lymph node cells and splenocytes. The assay can be described thus: In vitro antigen-specific recall responses of cells from treated R-EAE mice. As to the method: Draining lymph nodes (axillary, brachial, and inguinal) were harvested, and single cell suspensions were obtained by mashing through sterile 60-mesh wire screens. In 96-well microtiter plates, 5×10^5 erythrocyte-free (Tris-NH4Cl-treated) lymph node cells per well were incubated in supplemented culture medium with or without antigen at 37° C. in 7% CO2 for […] and then pulsed with 1 μCi/well of [^3H]-Thymidine for the final 48 h of culture. Proliferation was determined by uptake of [^3H]-Thymidine detected using a Topcount Microplate Scintillation Counter (Packard Instruments, Meridan, Conn.). Results are expressed as the mean of triplicate cultures from individual animal±SEM. Supernatants were collected at 72 hr for cytokine analysis. Cytokine measurements were performed using the Mouse Cytokine 10-Plex system and Luminex Liquidchip analyzer (Qiagen, Valencia, Calif.) or ELISA.
Lymph nodes were isolated from the murine B7-H4-Ig and Control IgG injected EAE mice as described above. T cells were harvested and were elicited with PLP139-151, the disease inducing dominant epitope, and PLP178-191, the spread epitope-specific peptide, in vitro. [^3H]-thymidine was added to the in vitro stimulation assay to analyze T cell proliferation.
Lymph nodes were isolated from Control IgG and murine B7-H4-Ig treated mice as described above. T cells were harvested and immune responses were elicited with PLP139-151, the disease inducing dominant peptide, and PLP178-191, the spread epitope peptide, in vitro. Supernatant was collected and analyzed for IFN-γ via commercially available ELISA kit.
Draining lymph nodes were harvested from the animals, and single cell suspensions prepared as described above and reactivated in vitro in the presence of anti-CD3 (0.1-10 μg/mL), PLP139-151 (1-20 μg/mL), or OVA323-339 (1-20 μg/mL). T cell proliferation in vitro was analyzed by [^3H] thymidine incorporation.
The impact of B7-H4-Ig treatment on epitope spreading was also examined. To do so, spleens and draining lymph nodes were collected from the same mice that were analyzed for the number and phenotype of CD4^+ T cells. SJL mouse were immunized with 50 μg of PLP139-151 peptide emulsified in CFA. Mice were treated B7-H4-Ig during remission: 60 or 100 ug per dose, 3 doses/wk, for 2 weeks (6 doses). On Day 35 total splenocytes and lymph node cells (5×10^5 cells per 200 ul culture) were activated in separate wells per mouse in the presence of anti-CD3 (1 ug/ml), PLP139-151 or PLP178-191 (20 μg/mL). At 24 hours following the initiation of culture, 1 μCi of ^3[H] tritiate thymidine was added to each well and wells were analyzed at 72 hours post the initiation of culture. This presented as the mean CPM. […] Therefore, B7-H4-Ig treatment during remission of ongoing R-EAE in SJL mice appears to decrease epitope spreading via an increase in the number of Treg cells. […] The higher dose appears more efficacious to lower the disease score at later time points (beyond Day 42 post disease initiation).

For a further assay, the system named is CTLA4 KD/NOD mice. The assay can be described thus: Autoimmune diabetes in CTLA4 KD/NOD mice. Particulars: 15 mg/kg i.p. 3 times per week for 4 weeks from age 2 weeks; mice 24 weeks old (22 weeks post treatment) (FIG. 49). As to the method:
Both female and male CTLA4 KD/NOD mice (Chen et al., PNAS, 103(44):16400-16405 (2006)) at age of 2 weeks were randomly assigned into experimental groups: vehicle (11 mice), and B7-H4-Ig (12 mice). Mice were treated with B7-H4-Ig 3 times per week for 4 weeks (15 mg/kg, per i.p. injection), and monitored 3 times per week for glucose content in the urine first with Diastix. […] Diabetes was determined when blood glucose reached ≧600 mg/dL.

Setting [3] is: Day 35 splenocytes and lymph node cells, treated during remission 60 or 100 ug per dose, 3 doses/wk, 2 weeks (FIGS. 45A, 45B).

With “B7-H4-Ig: B7-H4 extracellular domain fused to Ig Fc; bare label is the human protein in Example 3, murine protein in Examples 1, 2, 5, 7-11”, the overall arthritis scores entry in the assay with DBA/1J mice is “significantly lower than the ones of vehicle injected CIA mice”. In the assay with SJL mice, the “DTH response to PLP139-151 peptide versus OVA323-339 peptide” value is given as “significantly inhibited”. Besides, the “plasma TNFα production” value in assay [1] (plasma day 33, vs vehicle control (FIG. 17A)) is given as “significantly reduced”. In assay [1] (plasma day 33, vs vehicle control (FIG. 17B)), the “plasma IL6 production” value is on record as “significantly reduced”. Further, the “plasma MCP-1 production” value in assay [1] (plasma day 33, vs vehicle control (FIG. 17C)) was “significantly reduced”. Besides, in assay [2] (setting [3]), the “proliferative response to PLP139-151” value was “decreased the proliferative response” and the “proliferative response to PLP178-191” value is recorded as “decreased the proliferative response”. For the same substance, in assay [2] (administered on Day 0 (FIG. 38)), the “IFN-γ production in ex vivo T cell recall with PLP139-151 peptide” value is “specific inhibition of immune response to PLP139-151 peptide”. In addition, the “T cell proliferation when stimulated with anti-CD3” value in assay [2] (draining lymph nodes, Day 10 study (FIG. 40)) is on record as “robust T cell proliferation”. For the same substance, the “T cell response to PLP139-151 peptide stimulation ([3H] thymidine)” value in assay [2] (draining lymph nodes, Day 10 study, both 3 and 15 mg/kg doses (FIG. 40)) is “little to no response”. Also, in the assay with CTLA4 KD/NOD mice, the “diabetes development (blood glucose ≧600 mg/dL)” value was “did not develop diabetes”.
